According to PMC11062894, “Protein-based bandpass filters for controlling cellular signaling with chemical inputs” (Nature Chemical Biology, 2023):
Several values for one entry are separate records, joined by “and”; a condition that tells them apart may be missing. Identical values can stand only once.

Test system: GEMS receptors with CBPvene (Bcl2–LD3 and Bcl2high variants), STAT3-driven SEAP in HEK293T cells
Assay: GEMS SEAP reporter assay, CBPvene (Bcl2high, LD3-v and Bcl2-v variants) with venetoclax
Format: cell-based
Settings: for SEAP, replicate values: Supplementary Figure 8e
[1] = SuppFigure 8b, LD3, venetoclax 10 nM
[2] = SuppFigure 8b, LD3, venetoclax 31.6 nM
[3] = SuppFigure 8b, LD3, venetoclax 100 nM
[4] = SuppFigure 8b, LD3, venetoclax 316 nM
[5] = SuppFigure 8b, LD3, venetoclax 1000 nM
[6] = SuppFigure 8b, LD3, venetoclax 3160 nM
[7] = SuppFigure 8b, LD3, venetoclax 10000 nM
[8] = SuppFigure 8b, LD3v1, venetoclax 1 nM
[9] = SuppFigure 8b, LD3v1, venetoclax 3.16 nM
[10] = SuppFigure 8b, LD3v1, venetoclax 10 nM
[11] = SuppFigure 8b, LD3v1, venetoclax 31.6 nM
[12] = SuppFigure 8b, LD3v1, venetoclax 100 nM
[13] = SuppFigure 8b, LD3v1, venetoclax 316 nM
[14] = SuppFigure 8b, LD3v1, venetoclax 1000 nM
[15] = SuppFigure 8b, LD3v1, venetoclax 3160 nM
[16] = SuppFigure 8b, LD3v1, venetoclax 10000 nM
[17] = SuppFigure 8b, LD3v2, venetoclax 1 nM
[18] = SuppFigure 8b, LD3v2, venetoclax 3.16 nM
[19] = SuppFigure 8b, LD3v2, venetoclax 10 nM
[20] = SuppFigure 8b, LD3v2, venetoclax 31.6 nM
[21] = SuppFigure 8b, LD3v2, venetoclax 100 nM
[22] = SuppFigure 8b, LD3v2, venetoclax 316 nM
[23] = SuppFigure 8b, LD3v2, venetoclax 1000 nM
[24] = SuppFigure 8b, LD3v2, venetoclax 3160 nM
[25] = SuppFigure 8b, LD3v2, venetoclax 10000 nM
[26] = SuppFigure 8b, LD3v3, venetoclax 1 nM
[27] = SuppFigure 8b, LD3v3, venetoclax 3.16 nM
[28] = SuppFigure 8b, LD3v3, venetoclax 10 nM
[29] = SuppFigure 8b, LD3v3, venetoclax 31.6 nM
[30] = SuppFigure 8b, LD3v3, venetoclax 100 nM
[31] = SuppFigure 8b, LD3v3, venetoclax 316 nM
[32] = SuppFigure 8b, LD3v3, venetoclax 1000 nM
[33] = SuppFigure 8b, LD3v3, venetoclax 3160 nM
[34] = SuppFigure 8b, LD3v3, venetoclax 10000 nM
[35] = SuppFigure 8c, LD3, venetoclax 1 nM
[36] = SuppFigure 8c, LD3, venetoclax 3.16 nM
[37] = SuppFigure 8c, LD3, venetoclax 10 nM
[38] = SuppFigure 8c, LD3, venetoclax 31.6 nM
[39] = SuppFigure 8c, LD3, venetoclax 100 nM
[40] = SuppFigure 8c, LD3, venetoclax 316 nM
[41] = SuppFigure 8c, LD3, venetoclax 1000 nM
[42] = SuppFigure 8c, LD3, venetoclax 3160 nM
[43] = SuppFigure 8c, LD3, venetoclax 10000 nM
[44] = SuppFigure 8c, LD3v1, venetoclax 1 nM
[45] = SuppFigure 8c, LD3v1, venetoclax 3.16 nM
[46] = SuppFigure 8c, LD3v1, venetoclax 10 nM
[47] = SuppFigure 8c, LD3v1, venetoclax 31.6 nM
[48] = SuppFigure 8c, LD3v1, venetoclax 100 nM
[49] = SuppFigure 8c, LD3v1, venetoclax 316 nM
[50] = SuppFigure 8c, LD3v1, venetoclax 1000 nM
[51] = SuppFigure 8c, LD3v1, venetoclax 3160 nM
[52] = SuppFigure 8c, LD3v1, venetoclax 10000 nM
[53] = SuppFigure 8c, LD3v2, venetoclax 1 nM
[54] = SuppFigure 8c, LD3v2, venetoclax 3.16 nM
[55] = SuppFigure 8c, LD3v2, venetoclax 10 nM
[56] = SuppFigure 8c, LD3v2, venetoclax 31.6 nM
[57] = SuppFigure 8c, LD3v2, venetoclax 100 nM
[58] = SuppFigure 8c, LD3v2, venetoclax 316 nM
[59] = SuppFigure 8c, LD3v2, venetoclax 1000 nM
[60] = SuppFigure 8c, LD3v2, venetoclax 3160 nM
[61] = SuppFigure 8c, LD3v2, venetoclax 10000 nM
[62] = SuppFigure 8c, LD3v3, venetoclax 1 nM
[63] = SuppFigure 8c, LD3v3, venetoclax 3.16 nM
[64] = SuppFigure 8c, LD3v3, venetoclax 10 nM
[65] = SuppFigure 8c, LD3v3, venetoclax 31.6 nM
[66] = SuppFigure 8c, LD3v3, venetoclax 100 nM
[67] = SuppFigure 8c, LD3v3, venetoclax 316 nM
[68] = SuppFigure 8c, LD3v3, venetoclax 1000 nM
[69] = SuppFigure 8c, LD3v3, venetoclax 3160 nM
[70] = SuppFigure 8c, LD3v3, venetoclax 10000 nM

CC1(C)CCC(CN2CCN(c3ccc(C(=O)NS(=O)(=O)c4ccc(NCC5CCOCC5)c([N+](=O)[O-])c4)c(Oc4cnc5[nH]ccc5c4)c3)CC2)=C(c2ccc(Cl)cc2)C1 [Venetoclax]
Normalized data (SEAP) [1]: 4.498
Raw data (SEAP) [1]: 18.9052
Normalized data (SEAP) [2]: 14.8552
Raw data (SEAP) [2]: 62.4429
Normalized data (SEAP) [3]: 43.1759
Raw data (SEAP) [3]: 181.487
Normalized data (SEAP) [4]: 91.7223
Raw data (SEAP) [4]: 385.549
Normalized data (SEAP) [5]: 100
Raw data (SEAP) [5]: 420.344
Normalized data (SEAP) [6]: 92.3499
Raw data (SEAP) [6]: 388.188
Normalized data (SEAP) [7]: 51.2329
Raw data (SEAP) [7]: 215.355
Normalized data (SEAP) [8]: 9.345
Raw data (SEAP) [8]: 17.9682
Normalized data (SEAP) [9]: 9.034
Raw data (SEAP) [9]: 17.3705
Normalized data (SEAP) [10]: 10.4886
Raw data (SEAP) [10]: 20.1681
Normalized data (SEAP) [11]: 19.5956
Raw data (SEAP) [11]: 37.6794
Normalized data (SEAP) [12]: 44.2027
Raw data (SEAP) [12]: 84.9952
Normalized data (SEAP) [13]: 100
Raw data (SEAP) [13]: 192.285
Normalized data (SEAP) [14]: 87.7314
Raw data (SEAP) [14]: 168.695
Normalized data (SEAP) [15]: 49.2054
Raw data (SEAP) [15]: 94.6147
Normalized data (SEAP) [16]: 19.8616
Raw data (SEAP) [16]: 38.191
Normalized data (SEAP) [17]: 3.604
Raw data (SEAP) [17]: 12.0656
Normalized data (SEAP) [18]: 3.9805
Raw data (SEAP) [18]: 13.3245
Normalized data (SEAP) [19]: 4.834
Raw data (SEAP) [19]: 16.18
Normalized data (SEAP) [20]: 12.8068
Raw data (SEAP) [20]: 42.87
Normalized data (SEAP) [21]: 33.7173
Raw data (SEAP) [21]: 112.867
Normalized data (SEAP) [22]: 77.9659
Raw data (SEAP) [22]: 260.986
Normalized data (SEAP) [23]: 100
Raw data (SEAP) [23]: 334.744
Normalized data (SEAP) [24]: 66.077
Raw data (SEAP) [24]: 221.189
Normalized data (SEAP) [25]: 30.9558
Raw data (SEAP) [25]: 103.623
Normalized data (SEAP) [26]: 59.1038
Raw data (SEAP) [26]: 11.2669
Normalized data (SEAP) [27]: 71.809
Raw data (SEAP) [27]: 13.6889
Normalized data (SEAP) [28]: 61.7452
Raw data (SEAP) [28]: 11.7704
Normalized data (SEAP) [29]: 69.7498
Raw data (SEAP) [29]: 13.2963
Normalized data (SEAP) [30]: 80.5519
Raw data (SEAP) [30]: 15.3555
Normalized data (SEAP) [31]: 100
Raw data (SEAP) [31]: 19.0629
Normalized data (SEAP) [32]: 89.5017
Raw data (SEAP) [32]: 17.0616
Normalized data (SEAP) [33]: 75.6488
Raw data (SEAP) [33]: 14.4208
Normalized data (SEAP) [34]: 59.7156
Raw data (SEAP) [34]: 11.3835
Normalized data (SEAP) [35]: 3.575
Raw data (SEAP) [35]: 13.7218
Normalized data (SEAP) [36]: 3.97
Raw data (SEAP) [36]: 15.2365
Normalized data (SEAP) [37]: 6.118
Raw data (SEAP) [37]: 23.4789
Normalized data (SEAP) [38]: 19.9083
Raw data (SEAP) [38]: 76.4036
Normalized data (SEAP) [39]: 50.1718
Raw data (SEAP) [39]: 192.548
Normalized data (SEAP) [40]: 93.753
Raw data (SEAP) [40]: 359.804
Normalized data (SEAP) [41]: 100
Raw data (SEAP) [41]: 383.778
Normalized data (SEAP) [42]: 77.866
Raw data (SEAP) [42]: 298.833
Normalized data (SEAP) [43]: 35.1914
Raw data (SEAP) [43]: 135.057
Normalized data (SEAP) [44]: 13.8401
Raw data (SEAP) [44]: 15.4633
Normalized data (SEAP) [45]: 14.8573
Raw data (SEAP) [45]: 16.5999
Normalized data (SEAP) [46]: 15.6025
Raw data (SEAP) [46]: 17.4324
Normalized data (SEAP) [47]: 28.6773
Raw data (SEAP) [47]: 32.0407
Normalized data (SEAP) [48]: 48.5828
Raw data (SEAP) [48]: 54.2809
Normalized data (SEAP) [49]: 100
Raw data (SEAP) [49]: 111.729
Normalized data (SEAP) [50]: 98.9424
Raw data (SEAP) [50]: 110.547
Normalized data (SEAP) [51]: 75.2543
Raw data (SEAP) [51]: 84.0806
Normalized data (SEAP) [52]: 21.4009
Raw data (SEAP) [52]: 23.9109
Normalized data (SEAP) [53]: 4.916
Raw data (SEAP) [53]: 14.375
Normalized data (SEAP) [54]: 5.386
Raw data (SEAP) [54]: 15.7505
Normalized data (SEAP) [55]: 6.285
Raw data (SEAP) [55]: 18.3792
Normalized data (SEAP) [56]: 18.3149
Raw data (SEAP) [56]: 53.5545
Normalized data (SEAP) [57]: 44.7805
Raw data (SEAP) [57]: 130.943
Normalized data (SEAP) [58]: 92.9232
Raw data (SEAP) [58]: 271.716
Normalized data (SEAP) [59]: 100
Raw data (SEAP) [59]: 292.41
Normalized data (SEAP) [60]: 75.7485
Raw data (SEAP) [60]: 221.496
Normalized data (SEAP) [61]: 31.6477
Raw data (SEAP) [61]: 92.541
Normalized data (SEAP) [62]: 39.2835
Raw data (SEAP) [62]: 15.066
Normalized data (SEAP) [63]: 40.4811
Raw data (SEAP) [63]: 15.5253
Normalized data (SEAP) [64]: 41.5277
Raw data (SEAP) [64]: 15.9266
Normalized data (SEAP) [65]: 52.0376
Raw data (SEAP) [65]: 19.9574
Normalized data (SEAP) [66]: 75.9664
Raw data (SEAP) [66]: 29.1345
Normalized data (SEAP) [67]: 100
Raw data (SEAP) [67]: 38.3518
Normalized data (SEAP) [68]: 67.7678
Raw data (SEAP) [68]: 25.9902
Normalized data (SEAP) [69]: 51.723
Raw data (SEAP) [69]: 19.8367
Normalized data (SEAP) [70]: 31.0619
Raw data (SEAP) [70]: 11.9128
SEAP, replicate values (CBPVene-v5-LD3v1, venetoclax 100 nM): 98.3781 and 87.1331 and 45.1145
SEAP, replicate values (CBPVene-v5-LD3v1, venetoclax 3160 nM): 13.0779
SEAP, replicate values (CBPVene-v5, venetoclax 100 nM): 341.722 and 335.341
Raw data Figure 5c, CBPVene-v4-LD3v1 (SEAP reporter raw value, single replicate) (Venetoclax 10000 nM, construct CBPVene-v4-LD3v1, three replicate columns): 307.085 and 269.935 and 317.486
Raw data Figure 5c, CBPVene-v4 (SEAP reporter raw value, single replicate) (Venetoclax 10000 nM, construct CBPVene-v4, three replicate columns): 10.3692 and 8.227 and 12.3711
